Measured values published in PMC12822132, “Targeting mechanosensitive cannabinoid receptor 1 with isoflavone prodrugs attenuates atherosclerotic endothelial dysfunction” (Journal of Biomedical Science, 2026).

Biological target: T1, cannabinoid receptor 1 (CB1) (Homo sapiens, UniProt P21554)
T1 construct: gene CNR1; human recombinant receptor expressed in Chem-1 cells
Assay: radioligand displacement binding assay
Format: cell-based

T1 sequence (P21554 whole entry): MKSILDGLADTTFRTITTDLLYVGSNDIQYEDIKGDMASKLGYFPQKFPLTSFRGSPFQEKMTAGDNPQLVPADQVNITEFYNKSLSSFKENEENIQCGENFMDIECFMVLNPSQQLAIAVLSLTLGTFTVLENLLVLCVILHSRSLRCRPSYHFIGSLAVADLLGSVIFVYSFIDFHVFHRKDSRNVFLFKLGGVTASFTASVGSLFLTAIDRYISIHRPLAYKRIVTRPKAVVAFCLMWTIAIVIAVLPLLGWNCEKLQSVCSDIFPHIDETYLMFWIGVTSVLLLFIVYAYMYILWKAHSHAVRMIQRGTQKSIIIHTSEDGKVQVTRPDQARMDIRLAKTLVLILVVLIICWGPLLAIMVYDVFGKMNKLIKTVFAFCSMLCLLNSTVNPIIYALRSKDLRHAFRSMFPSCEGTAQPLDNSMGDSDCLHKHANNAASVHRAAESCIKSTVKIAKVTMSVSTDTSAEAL

O=c1c(-c2ccc(O)cc2)coc2cc(O)cc(O)c12 [genistein]
Ki: 140 nM
